# Structures can show the parent of a compound that is named as a salt.
# Test system: SARS2-S-mediated membrane fusion
# Assay type: cell-based, SARS-CoV-2
structure (smiles),measurement,value
CC(CN(C)C)CN1c2ccccc2Sc2ccccc21 (centres unmarked) [Alimemazine tartrate],SARS2-S-mediated membrane fusion (average number of nuclei in each syncytium),reduced the formation of syncytia
same,"membrane fusion by mutant SARS2-S (Δ69–70, N501Y, E484K, D614G)",reduced the formation of syncytia
